Molecules are shown by their SMILES.

The subject of one series is cyp19a1b promoter. Description: EASZY assay: GFP fluorescence in brain of live cyp19a1b-GFP transgenic 4-dpf larvae. Format: in vivo, zebrafish. The conditions noted are these: 4-dpf cyp19a1b-GFP larvae, exposure 2 hpf to 4 dpf; for fold induction at 1 µM: Danio rerio, read-out: GFP fluorescence, fold induction above DMSO control. The protocol:
Quantification of fluorescence in transgenic cyp19a1b-GFP zebrafish larva brain was performed according to Brion et al. ([2012]). In this assay, estrogenic activity is detected in living 4 days-old larvae (treated or not with an estrogen mimic compound) from the observation of the reporter gene fluorescence in the radial glial cells. […] All photographs were taken using the same parameters: only the head was photographed under a X10 objective, with a 134 ms exposure time and maximal intensity. Photographs were analyzed using the Axiovision Imaging software and fluorescence quantification was performed using the ImageJ software (http://rsbweb.nih.gov/ij/). For each picture, the integrated density was measured, i.e., the sum of the gray-values of all the pixels within the region of interest. A gray-value of 290 was defined as background value. For each micrograph the fluorescence fold induction of fluorescence was calculated comparing the integrated pixel density with the average fluorescence induction obtained in the control group.

Another series concerns cyp19a1b transcripts. In words: cyp19a1b in situ hybridization on 7-dpf brain sections. The format is in vivo, zebrafish. The following applies: 1 μM, 7-dpf larvae; for distribution of cyp19a1b transcripts in the whole brain: transverse sections. The protocol: (§1) For subsequent RT-qPCR and in situ hybridization analysis with wild type zebrafish, groups of 80 embryos (for each condition) were placed after 1 day post-fertilization (1-dpf) in a large glass flask containing 100 ml of embryonic medium (Mouriec et al., [2009b]). […] The embryos were held in the exposure flasks until 7-dpf larva stage. […] Embryos were maintained in the exposure dishes until 4-dpf larva stage. During the treatment period, 100% of the exposure medium was renewed every 24 h (for both wild type and transgenic zebrafish).
Larvae used for in situ hybridization experiments originated from the same exposition groups than RT-qPCR experiments. After exposure to the different conditions, 10 wild type 7-dpf larvae (for each treatment) were fixed overnight at 4°C in 4% paraformaldehyde, before embedding in parrafin. Serial thin transverse sections ([…]) were placed on cryofrost slides and subjected to in situ hybridization experiments. Sense and antisense digoxigenin-labeled riboprobes for the cyp19a1b gene were transcribed using the Digoxigenin RNA labeling kit in accordance with the manufacturer's instructions (Roche, Mannheim, Germany) and as previously described (Menuet et al., [2005]). The brain sections were processed for in situ hybridization using stringent conditions as previously published (D'Amico et al., [2011], [2013]). After NBT/BCIP revelation, sections were counterstained with DAPI, and mounted in a drop of vectashield (Vector Laboratories). All sections were photographed with an Olympus PROVIS AX70 microscope with a digital camera (Olympus SP71), or a Nikon multizoom AZ100 macroscope with a DS-Ri1 color camera.

A further series concerns the target T1, zfERα (Danio rerio, UniProt P57717).
T1 sequence (P57717 1-569): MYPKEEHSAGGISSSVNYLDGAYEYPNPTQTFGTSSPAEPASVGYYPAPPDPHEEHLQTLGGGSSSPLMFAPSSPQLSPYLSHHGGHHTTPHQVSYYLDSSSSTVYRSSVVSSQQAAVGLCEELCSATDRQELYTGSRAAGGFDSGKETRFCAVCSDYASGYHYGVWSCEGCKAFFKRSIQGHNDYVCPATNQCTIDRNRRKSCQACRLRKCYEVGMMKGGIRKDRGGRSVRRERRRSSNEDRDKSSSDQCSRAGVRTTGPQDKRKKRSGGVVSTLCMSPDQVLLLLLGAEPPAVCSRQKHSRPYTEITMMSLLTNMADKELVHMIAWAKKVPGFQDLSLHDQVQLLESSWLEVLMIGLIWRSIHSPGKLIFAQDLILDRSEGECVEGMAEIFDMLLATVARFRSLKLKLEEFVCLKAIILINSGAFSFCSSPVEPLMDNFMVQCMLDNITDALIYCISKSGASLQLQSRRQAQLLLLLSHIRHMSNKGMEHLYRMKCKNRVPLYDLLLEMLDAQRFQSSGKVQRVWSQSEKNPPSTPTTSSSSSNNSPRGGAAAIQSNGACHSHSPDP
In words: cyp19a1b-luciferase reporter gene assay in U251-MG glial cells transfected with zfERα. More on the design: containing the coding regions of each zebrafish estrogen receptor cDNA; expressed in transfected cells; host or cells: human U251-MG glial cells (ER-negative). The conditions noted are these: 10–6 M, 24 h, U251-MG cells with ERα, vs DMSO. Format: cell-based, zebrafish. The protocol:
The medium was also supplemented with 20 U/mL penicillin, 20 μg/mL streptomycin, and 50 ng/mL amphotericin B (Gibco). For transfections, cells were plated in 24-well plates at a density of 25,000 cells/ml in the same medium, except the fetal calf serum was charcoal-treated and used at a concentration of 2.5%. Cells were transfected with 25 ng/well either the vector expression containing or not the zfERα, zfERβ1, zfERβ2 coding region and cytomegalovirus [CMV]−β-Galactosidase, and 150 ng/well of the cyp19a1b-Luciferase reporter plasmid, using JetPEI as a transfection reagent (Polyplus Transfection, Illkirch, France). […] Luciferase activity was measured 24 h later (Luciferase assay system, Promega, Madison, WI, USA). β-Galactosidase activity was used to normalize transfection efficiency. Chemicals were tested in at least 3 independent experiments and each experiment was performed in triplicate.
For orientation: A reporter such as luciferase makes a cellular process visible.

In the next series the test system is cyp19a1b gene. In words: RT-qPCR of cyp19a1b transcripts in wild type 7-dpf larva brains. The conditions noted are these: for fold induction at 1 µM: Danio rerio, read-out: cyp19a1b gene expression, fold induction relative to DMSO, 1 μM, 7-dpf larvae brains, six independent exposures, Figure 1B. The protocol: as §1
Tissue was sonicated (10 s, 3 times) in 250 μL Trizol Reagent (Invitrogen) and RNA extractions were carried out according to the manufacturer's protocol. Reverse transcription was carried out by incubating 2μg total RNA with 1μg of random primer oligonucleotides, 2.5ṁM dNTPs, and 50 U MMLV-RT (Promega) in the appropriate buffer for 10 min at 65°C and 60 min at 37°C. Quantitative Polymerase chain reaction (qPCR) experiments were performed in an iCycler thermocycler coupled to the MyiQ detector (Bio-Rad. Hercules, CA, USA) using iQ SYBR-Green Supermix (Bio-Rad) according to the manufacturer's protocol. The following primers were used: ef1 (fw) 5′-[…]-3′; ef1 (rev) 5′-[…]-3′; cyp19a1b (AroB; fw) 5′-[…] For each condition, the RT-PCR experiment was run in triplicates. Expression levels of ef1 mRNA were used to normalize cyp19a1b expression levels. Melting curve and PCR efficiency analyses were performed to confirm correct amplification. For quantification of PCR results, the threshold cycle (Ct) was determined for each reaction. Ct values for each gene of interest were normalized with the housekeeping gene ef1, using the ΔΔCt method. Normalized values were used to calculate the degree of induction or inhibition expressed as a “fold difference” compared to normalized control values.
A general note: Quantitative PCR measures a nucleic acid by following its amplification.

Consider `Oc1ccc(C(c2ccc(O)cc2)(C(F)(F)F)C(F)(F)F)cc1` [BPAF, 2,2-bis(4-hydroxylphenyl)hexafluoropropane], for which the fold induction at 1 µM is 14 with cyp19a1b promoter and ~43 in the series on cyp19a1b gene. Further, the “distribution of cyp19a1b transcripts in the whole brain” value (“distribution of cyp19a1b transcripts” for short) in the series with cyp19a1b transcripts is “identical to EE2- and BPA-treated animals”. Moreover, the “cyp19a1b-luciferase reporter gene induction” value on zfERα was “significant stimulation”.

In the case of `O=S(=O)(c1ccc(O)cc1)c1ccc(O)cc1` [BPS, bis-(4-hydroxyphenyl)sulfone], the fold induction at 1 µM with cyp19a1b promoter was 6; with cyp19a1b gene, ~41. In addition, the “distribution of cyp19a1b transcripts” value in the series on cyp19a1b transcripts is “identical to EE2- and BPA-treated animals”. In addition, the “cyp19a1b-luciferase reporter gene induction” value on zfERα is “did not stimulate”.

For `CC(c1ccccc1)(c1ccc(O)cc1)c1ccc(O)cc1` [BPAP, 4,4′-(1-phenylethylidene)bisphenol], in the series on cyp19a1b promoter (1 μM), the “GFP fluorescence, fold induction above DMSO control” value is “did not affect GFP fluorescence signal”. Further, in the series with cyp19a1b transcripts, the “cyp19a1b transcripts in the nucleus recessus posterioris (nrp), caudal hypothalamus” value is “increase in cyp19a1b transcripts in the nrp region (Figure 5H) albeit to a lower levels” and the “distribution of cyp19a1b transcripts” value is listed as “induces expression of cyp19a1b transcripts in only a few (xeno) estrogen-sensitive cyp19a1b expression sites”. Further, on zfERα, the “cyp19a1b-luciferase reporter gene induction” value was “did not stimulate”. Besides, the “cyp19a1b gene expression, fold induction relative to DMSO” value with cyp19a1b gene (1 μM, 7-dpf larvae brains, six independent exposures, Figure 1B) is recorded as “no effect”.

The values above are taken from paper PMC4805609, “Estrogenic Effects of Several BPA Analogs in the Developing Zebrafish Brain” (Frontiers in Neuroscience, 2016).
